Among the data in PubChem BioAssay (NCI) are GI50 and TGI values, retold here.

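The compound was tested at five concentrations on cells cultured in 96-well plates, with a 48-hour exposure period. Abbreviation: GI50, concentration required for 50% inhibition of growth. TGI is the concentration that stops growth completely.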

Common to all, as to assay: NCI-60 cell line screen, 48 h
Assay [1] concerns NCI-H460 lung.
Assay [2] has as its system HCT-15 colon.
Assay [3] deals with HOP-92 NSCLC.
Assay [4] deals with MDA-MB-231 breast.
Assay [5] concerns A549 NSCLC.
Assay [6] has as its system SF-295 CNS.
Assay [7] relates to HCC-2998 colon.
Assay [8] concerns CAKI-1 renal.
Assay [9] relates to NCI-H226 lung.
Assay [10] concerns OVCAR-4 ovarian.
Assay [11] has as its system MDA-N.

As for `Nc1ccc2c3c(n(CCCCl)c(=O)c2c1)-c1cc2c(cc1C3=O)OCO2`, the GI50 in assay [1] was 0.14 µM; in assay [2], greater than 100 µM; in [3], greater than 100 µM; in assay [4], 60.1 µM; in assay [5], 7.75 µM; in assay [6], 0.349 µM. In addition, the results for the GI50 in assay [7] and in assay [8] were greater than 100 µM and 1.03 µM, respectively. Further, the TGI in [1], in assay [2], in [3], in [4], in assay [5] and in assay [6] was greater than 100 µM in each case. Moreover, the TGI in assay [7] and in [8] was greater than 100 µM throughout.
For the compound `COc1ccc2c(c1)N=C1CSC(c3cccc(Br)c3)N1C2` (stereo not given), the TGI in assay [1] came out at 23.7 µM; in assay [2], 35.5 µM; in assay [9], 43.5 µM; in assay [3] it was 53.2 µM; in [10] it was 40.4 µM; in assay [4] it was 50.6 µM. Besides, the TGI in assay [5] was determined as 48.1 µM; in assay [11], 34.5 µM; in assay [6], 40.8 µM; in assay [7], 19.7 µM; in [8] it was 59.3 µM.
For the compound `Cc1cccc2[s+]snc12`, the TGI in assay [1] is greater than 100 µM; in [2], greater than 72.3 µM; in assay [9], greater than 100 µM; in assay [3], 44.9 µM; in [10], greater than 100 µM; in assay [5], greater than 100 µM. Moreover, the TGI in [6], in assay [7] and in assay [8] was greater than 100 µM each time.
Consider `NC(CCP(=O)(O)CCC1C=CC=CC1)C(=O)O` (stereo not given), for which the TGI in assay [1], in assay [2], in assay [3], in assay [10], in assay [4] and in assay [5] was greater than 100 µM in each case. In addition, the TGI in assay [11], in assay [6], in assay [7] and in assay [8] was greater than 100 µM each time.
Regarding `CC(C)(C)[Si](C)(C)OCC1CCC(n2cnc3c(N)ncnc32)O1` (stereo not given), the TGI in assay [1], in assay [2], in [9], in [3], in assay [10] and in [4] was greater than 100 µM in each case. Besides, the TGI in assay [11], in assay [6] and in assay [8] was greater than 100 µM in each case.
Consider `O=[N+]([O-])c1ccc(Nc2nc3ccccc3s2)cc1`, for which the TGI was greater than 100 µM in assay [1]; greater than 100 µM in assay [2]; greater than 100 µM in assay [9]; 60.9 µM in assay [3]; greater than 100 µM in assay [10]; 40.2 µM in [4]. Further, the TGI is greater than 100 µM in assay [5], greater than 100 µM in assay [6], 84 µM in assay [7] and greater than 100 µM in assay [8].
With `NNc1nc2ccccc2s1`, the TGI in assay [1], in assay [2], in assay [9], in assay [3], in assay [10] and in [4] was greater than 100 µM throughout. In addition, the TGI in [5], in assay [11], in assay [7] and in assay [8] was greater than 100 µM in each case.
In the case of `CCOC(=O)/C(C#N)=C1\c2c([nH]c(=S)[nH]c2=O)Oc2ccc3ccccc3c21`, the TGI in assay [1], in assay [2], in assay [9], in [3], in [10] and in [4] was greater than 100 µM throughout. Moreover, the TGI in [5], in [11], in [6], in [7] and in assay [8] was greater than 100 µM throughout.
For the compound `Cc1ccc(Nc2nc(N)nc3c2ncn3C2OC(CO)C(O)C2O)cc1` (stereo not given), the TGI in assay [2], in [9], in assay [3], in assay [10], in assay [4] and in [5] was greater than 100 µM in each case. For the same compound, the TGI in [11], in assay [6], in assay [7] and in assay [8] was greater than 100 µM in each case.
Turning to `c1cn2cc(-c3ccc4ncn(C5CCCCC5)c4c3)nc(-c3ccc4c(c3)ncn4C3CCCCC3)c2n1`, the GI50 is 1.98 µM in assay [1]; 1.54 µM in assay [3]; 2.17 µM in assay [10]; 1.29 µM in assay [4]; 1.94 µM in assay [5]; 1.71 µM in [6]. Also, the GI50 in [7] was 1.81 µM; in assay [8] it was 1.46 µM. The TGI in assay [1] came out at 4.02 µM; in [3] it was 3.22 µM; in assay [10], 6.3 µM; in assay [4], 3.08 µM; in assay [5] it was 3.54 µM; in assay [6], 3.15 µM. In addition, the TGI was found to be 3.45 µM in assay [7] and 2.95 µM in [8].
Take `COC1CC(OC2CCC3(C)C(CCC45CCC(C6=CC(=O)OC6)C(C)(CCC43)C5=O)C2)OC(C)C1O` (stereo not given): the TGI in [1] was 32.4 µM; in [2], 52.2 µM; in assay [9], greater than 100 µM; in [3], greater than 100 µM; in assay [4] it was greater than 100 µM; in assay [5], greater than 100 µM. For the same compound, the TGI is greater than 100 µM in assay [11], greater than 100 µM in [6], 44.4 µM in assay [7] and 80.1 µM in assay [8].
`CCC(=O)NC(Nc1ccc(O)cc1)(C(F)(F)F)C(F)(F)F`: the TGI was greater than 100 µM in assay [1]; greater than 100 µM in assay [2]; greater than 100 µM in [9]; greater than 100 µM in assay [4]; 35.3 µM in assay [11]; greater than 100 µM in [7].
For `CC12CCC(C(=O)N3CC=CCC3)(OC1=O)C2(C)C` (stereo not given), the TGI in [1], in assay [2], in assay [9], in assay [3], in assay [10] and in [5] was greater than 100 µM in each case. Moreover, the TGI in [6], in assay [7] and in assay [8] was greater than 100 µM in each case.
As for `C/C(=N/O)c1cccc(Nc2nc3ccc(Cl)cc3c3[nH]c4ccccc4c23)c1`, the TGI in assay [1] stood at 4.29 µM; in [2] it was 5.03 µM; in [9], 9.82 µM; in assay [10], 4.82 µM; in [4], 9.32 µM; in assay [5], 5.13 µM. For the same compound, the TGI in [11] is 4.05 µM; in assay [6], 4.32 µM; in [8] it was 6.11 µM.
As to `CC1=CC(=O)C(=O)C2=C1OC1(C2)C(C)CCC2C3(C)CCC(O)C(C)(C)C3CCC21C` (stereo not given), the TGI was 35.1 µM in assay [1]; 42.1 µM in [2]; 35.5 µM in [9]; 33.1 µM in assay [3]; 37.4 µM in [10]; greater than 100 µM in assay [5]. Also, the TGI in assay [6] worked out at 35.3 µM; in assay [7] it was 34 µM; in assay [8] it was 33.8 µM.
Turning to `O=C(O)C1Cc2c([nH]c3ccccc23)C=N1` (stereo not given), the TGI in assay [1], in assay [2], in assay [3], in [10], in assay [5] and in [6] was greater than 100 µM in each case. Further, the TGI in [7] and in assay [8] was greater than 100 µM each time.
With `N=C(N)c1csc([C@@H]2O[C@H](CO)[C@@H](O)[C@H]2O)n1`, the TGI in assay [1], in [2], in assay [9], in [10], in assay [5] and in assay [6] was greater than 100 µM each time. Further, the TGI in [7] and in [8] was greater than 100 µM throughout.
With `NC(=O)C(c1ccccc1)N1OC2C(=O)N(c3cccc4ccccc34)C(=O)C2C1c1c2ccccc2c(Cl)c2ccccc12` (stereo not given), the TGI in [1] amounted to 18.6 µM; in assay [2], 16.4 µM; in assay [9], 13.5 µM; in assay [3], 32 µM; in assay [10] it was 33.2 µM; in [4] it was 18.8 µM. The TGI in assay [5] was greater than 50 µM; in assay [11], 7.88 µM; in [6], 23.9 µM; in assay [8], 22.7 µM.
For `C(=NCc1ccccc1)c1ccccc1-c1ccccc1C=NCc1ccccc1`, the TGI in assay [1], in assay [2], in assay [9], in assay [3], in assay [10] and in assay [4] was greater than 10 µM each time. The TGI in assay [5], in assay [11], in assay [6] and in [8] was greater than 10 µM each time.
With `COc1cc(C2=C(C#N)C(N)OC3=C2COc2ccccc23)cc(OC)c1OC` (stereo not given), the TGI in assay [1] is 84.8 µM; in assay [2], greater than 100 µM; in assay [9] it was 91.1 µM; in assay [3] it was greater than 100 µM; in [10] it was 45.7 µM; in assay [4], 43.8 µM. Further, the TGI in assay [5] is 49.3 µM; in assay [11] it was greater than 100 µM; in assay [7] it was 56.8 µM.
